Experiments:
DU-145 = assay: CellTiter-Glo cancer cell growth inhibition, DU-145; format: cell-based; conditions: Homo sapiens, DU-145, 72 h
Excerpt: (§1) The CellTiter-Glo® Luminescent Cell Viability Assay is a sensitive homogeneous method to determine the number of viable cells in culture, Detection is based on using the luciferase reaction to measure the amount of ATP from viable cells. The amount of ATP in cells correlates with cell viability. Within minutes after a loss of membrane integrity, cells lose the ability to synthesize ATP, and endogenous ATPases destroy any remaining ATP; thus the levels of ATP fall precipitously. The CellTiter-Glo® Reagent does three things upon addition to cells. It lyses cell membranes to release ATP; it inhibits endogenous ATPases, and it provides luciferin, luciferase and other reagents necessary to measure ATP using a bioluminescent reaction. The unique properties of a proprietary stable luciferase. There is a linear relationship (r2=0.99) between the luminescent signal and the number of cells from 0 to 50.000 cells per well.
All assays were performed by Reaction Biology Corporation (Malvern, Pa.) or ChemDiv, Inc. (San Diego, Calif.). […]
Conditions: 37° C., air 95%; HEPA-filtered carbon dioxide (CO2) 5%, humidified atmosphere. • Cells were grown in 175 cm^2 flasks to 80-90% of confluency. • Culture media was aspirated and cell layer was briefly rinsed with Versen solution to remove all traces of serum. • 2 mL of accutase was added to cells. • Flasks were retuned to incubator for 5 min to allow cell detachment. • Add 6.0 mL of complete growth medium. • Single cell suspension was created by gently pipetting. • Cells were counted using a Hematocytometer and a suspension with the desired cell concentration was prepared. […]
Stock solutions ([…]) were diluted with cell culture media to produce 500× serial dilutions and […] of final compound dilutions were added to cells in assay plates to screen a series of 10 doses starting at 100 mM. […] Luminescence intensity was measured for each well using the Tecan M 1000 microplate reader after 5 min of incubation with CellTiter-Glo Reagent. The number of viable cells in culture was determined based on quantitation of the ATP present in each culture well. […]

PIM2 = molecular target: T1, PIM2 (Homo sapiens, UniProt Q9P1W9); assay: LANCE Ultra kinase assay, PIM2; format: biochemical
T1 construct: purchased ProQinase, Freiburg, Germany 0223-0000-1
Excerpt: (§2) The second assay used was Perkin Elmer's LANCE® Ultra kinase assay which uses a ULight™-labeled peptide substrate and an appropriate Europium-labeled anti-phospho antibody. When the substrate becomes phosphorylated by a kinase of interest, the phosphorylated site on the substrate is recognized by the Europium-labeled anti-phospho antibody. […] The intensity of light emission is proportional to the level of ULight peptide phosphorylation. A kinase inhibitor reduces the FRET signal, thus providing an accurate and sensitive measure of inhibition potency.
(§3) The assay was performed in 384-well plates in two steps: PIM kinases were mixed with the ULight-substrate (CREBtide) in buffer and incubated for 10 min. Subsequently, ATP and molecules of the present disclosure were added in a kinase buffer at the appropriate concentration and the reactions were incubated for 1 hour, at room temperature in the dark. • After 1 h EDTA was added to stop the kinase reaction, Eu-W1024-labeled anti-phosphoserine-CREB (Ser133) Antibody (anti-phosphoCREBtide specific antibody) was added to the reaction in LANCE Detection buffer. The mixture was allowed to incubate for 30 min to allow binding of the antibody to the phosphorylated site before the plate was read using a Tecan microplate reader
(§4) Kinase Assay Buffer—50 mM HEPES pH7.0.1 mM EGTA, 10 mM MgCl2, 0.01% BRU-35.
(§5) The inhibitory activity of each compound against PIM kinases was measured with the LANCE® Ultra Kinase Assays by ChemDiv, Inc. (San Diego, Calif.).

PIM1 = molecular target: T2, PIM1 (Homo sapiens, UniProt P11309); assay: LANCE Ultra kinase assay, PIM1; format: biochemical
T2 construct: purchased ProQinase, Freiburg, Germany 0186-0000-1
Excerpt: as §2, §3, §4, §5

HepaRG = assay: CellTiter-Glo cancer cell growth inhibition, HepaRG; format: cell-based; conditions: Homo sapiens, 72 h
Excerpt: as §1, with “luciferase.” for “luciferase. There is a linear relationship (r2=0.99) between the luminescent signal and the number of cells from 0 to 50.000 cells per well.”
(§6) All assays were performed by Reaction Biology Corporation (Malvern, Pa.) or ChemDiv, Inc. (San Diego, Calif.). All cell lines were purchased from American Type Culture Collection (ATCC, Manassas, Va.), except Huh 7 (RIKEN, Toyo, Japan) and HepaRG (Life Technologies, Carlsbad, Calif.).
(§7) Stock solutions ([…]) were diluted with cell culture media to produce 500× serial dilutions and […] of final compound dilutions were added to cells in assay plates to screen a series of 10 doses starting at […]. Final DMSO concentration was 0.2%. Assay plates are centrifuged at 100 rpm, 1 minute and kept at 37° C., 5% CO2, humidified atmosphere. […] Luminescence intensity was measured for each well using the Tecan M 1000 microplate reader after 5 min of incubation with CellTiter-Glo Reagent. The number of viable cells in culture was determined based on quantitation of the ATP present in each culture well. […] The EC50 curves were plotted and […] values were calculated using the GraphPad Prism 4 program based on a sigmoidal dose-response equation.

A673 = assay: CellTiter-Glo cancer cell growth inhibition, A673; format: cell-based; conditions: Homo sapiens, A673, 72 h
Excerpt: as §1, with “luciferase.” for “luciferase. There is a linear relationship (r2=0.99) between the luminescent signal and the number of cells from 0 to 50.000 cells per well.”
as §6, §7

T1 sequence (Q9P1W9 whole entry): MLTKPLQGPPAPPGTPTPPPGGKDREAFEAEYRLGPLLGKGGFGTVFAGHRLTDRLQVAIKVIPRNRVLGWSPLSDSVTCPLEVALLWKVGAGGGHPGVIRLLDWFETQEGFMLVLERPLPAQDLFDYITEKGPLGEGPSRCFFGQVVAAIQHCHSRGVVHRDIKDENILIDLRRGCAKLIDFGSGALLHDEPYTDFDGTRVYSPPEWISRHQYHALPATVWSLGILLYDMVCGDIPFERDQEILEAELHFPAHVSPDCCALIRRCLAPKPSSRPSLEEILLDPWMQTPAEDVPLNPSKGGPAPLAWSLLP
T2 sequence (P11309 whole entry): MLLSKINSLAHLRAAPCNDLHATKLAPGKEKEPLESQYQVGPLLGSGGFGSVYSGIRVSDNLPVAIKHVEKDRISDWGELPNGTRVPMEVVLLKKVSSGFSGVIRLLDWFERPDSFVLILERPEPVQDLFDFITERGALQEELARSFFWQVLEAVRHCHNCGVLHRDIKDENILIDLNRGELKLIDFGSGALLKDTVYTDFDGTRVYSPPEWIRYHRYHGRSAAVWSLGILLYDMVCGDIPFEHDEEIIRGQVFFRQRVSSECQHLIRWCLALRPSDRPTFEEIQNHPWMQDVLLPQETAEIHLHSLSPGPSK

O=C1NC(=O)c2c1c1c3cc(F)c(O)cc3[nH]c1c1c2c2ccccc2n1CCN1CCOCC1 [Compound 18, 3-fluoro-2-hydroxy-12-(2-morpholin-4-ylethyl)-12,13-dihydro-5H-indolo[2,3-a]pyrrolo[3,4-c]carbazole-5,7(6H)-dione]
EC50 (DU-145): 41 nM | IC50 (PIM2; ATP 1 mM): 41 nM | IC50 (PIM1; ATP 1 mM): 1.7 nM

O=C1NC(=O)c2c1c1c3ccccc3[nH]c1c1c2c2cc(F)c(O)cc2n1CCN1CCOCC1 [Compound 19, 3-fluoro-2-hydroxy-13-(2-morpholin-4-ylethyl)-12,13-dihydro-5H-indolo[2,3-a]pyrrolo[3,4-c]carbazole-5,7(6H)-dione]
EC50 (HepaRG): 48 nM | EC50 (DU-145): 40 nM | IC50 (PIM2; ATP 0.1 mM): 3.2 nM | IC50 (PIM2; ATP 1 mM): 4.9 nM | IC50 (PIM1; ATP 0.1 mM): 0.23 nM | IC50 (PIM1; ATP 1 mM): 0.82 nM | EC50 (A673): 10 nM

Reference: US20220274997A1, “PIM KINASE INHIBITOR COMPOSITIONS AND USES THEREOF” (Snap Bio, Inc., priority 2019, published 2022)
